Here are results for six molecules from ChEMBL document CHEMBL1127472, “Inhibition of topoisomerase I by anthracycline antibiotics: evidence for general inhibition of topoisomerase I by DNA-binding agents” (J Med Chem, 1994).

For test [1], the system named is DNA topoisomerase 1 (Bos taurus). Kind of test: Ratio of DNA relaxation times by topoisomerase in presence of 2 uM of compound (t1/e(+drug) / t 1/e(-drug)).
Test [2] shares this test system. Kind of test: Ratio of DNA relaxation times by topoisomerase in presence of 9 uM of compound (t1/e(+drug) / t 1/e(-drug)).
Test [3] shares this test system. In words: Ratio of DNA relaxation times by topoisomerase in presence of 20 uM of compound (t1/e(+drug) / t 1/e(-drug)); Initial complete inhibition.
The subject of test [4] is DNA. In words: Binding constant was measured for DNA binding at 20 uM concentration.
Test [5] concerns DNA topoisomerase 1 (Bos taurus). Kind of test: Ratio of DNA relaxation times by topoisomerase in presence of 20 uM of compound (t1/e(+drug) / t 1/e(-drug)); Complete inhibition.
Test [6] has the same test system. In words: Ratio of DNA relaxation times by topoisomerase in presence of 18 uM of compound (t1/e(+drug) / t 1/e(-drug)).
Test [7] shares this test system. In words: Ratio of DNA relaxation times by topoisomerase in presence of 17 uM of compound (t1/e(+drug) / t 1/e(-drug)); Initial complete inhibition.
For test [8], the system named is DNA. Kind of test: Binding constant was measured for DNA binding at 17 uM concentration.

As for `COc1cccc2c1C(=O)c1c(O)c3c(c(O)c1C2=O)C[C@@](O)(C(C)=O)C[C@@H]3OC1CC(O)C(CC2CC(O)C(CC3CCC(=O)C(C)O3)CO2)C(C)O1` (stereo not given in full), the Ratio in test [1] is 0.92; in test [2] it was 1.4.
Consider `COc1cccc2c1C(=O)c1c(O)c3c(c(O)c1C2=O)C[C@@](O)(C(C)=O)C[C@@H]3OC1OC(C)C(CC2CC(O)C(CC3CCC(=O)C(C)O3)CO2)C(O)C1I` (stereo not given in full), for which the Ratio is 1.4 in test [1] and “Initial complete inhibition” in test [3].
In the case of `COc1cccc2c1C(=O)c1c(O)c3c(c(O)c1C2=O)C[C@@](O)(C(C)=O)C[C@@H]3OC1OC(c2ccccc2)C(O)C(O)C1I` (stereo not given in full), the figures for the Ratio in test [1] and in test [5] were 3.5 and “Complete inhibition”, respectively. In the test on DNA [4], this molecule returned a Ka1 of 400.
In the case of `COc1cccc2c1C(=O)c1c(O)c3c(c(O)c1C2=O)C[C@@](O)(C(C)=O)C[C@@H]3OC1OC(C)C(O)C(O)C1I` (stereo in doubt; 2), the Ratio in test [1] is 2; in test [5] it was “Complete inhibition”. In the test on DNA [4], this molecule displayed a Ka1 of 120.
On to `COc1cccc2c1C(=O)c1c(O)c3c(c(O)c1C2=O)C[C@@](O)(C(C)=O)C[C@@H]3OC1OC(C)C(O)C(O)C1I` (stereo in doubt; form 1), for which the values for the Ratio in test [1] and in test [6] were 0.76 and 1, respectively.
For `COc1cccc2c1C(=O)c1c(O)c3c(c(O)c1C2=O)C[C@@](O)(C(C)=O)C[C@@H]3OC1OC(C)C(O)C(O)C1I` (stereo in doubt; form 2), the Ratio in test [1] is 1.5; in test [7], “Complete inhibition”. For the same molecule, the Ka1 in the test on DNA [8] was 5.
